Results: ChEMBL document CHEMBL1153245, “A profile of the in vitro anti-tumor activity of imidazolium-based ionic liquids” (2010)

Experiments:
Assay type in all cases: functional
RXF 393 [1] = assay: Anticancer activity against human RXF393 cells assessed cell growth at 10 uM after 48 hrs by sulforhodamine B assay relative to control
SNB-19 = assay: Anticancer activity against human SNB19 cells after 48 hrs by sulforhodamine B assay; conditions: Homo sapiens, SNB-19, 48 h; for CC50: read-out: LC50 (the source's name)
MCF7 = assay: Anticancer activity against human MCF7 cells assessed cell growth at 10 uM after 48 hrs by sulforhodamine B assay relative to control
NCI-H23 = assay: Anticancer activity against human NCI-H23 cells assessed cell growth at 10 uM after 48 hrs by sulforhodamine B assay relative to control
HOP-92 = assay: Anticancer activity against human HOP92 cells after 48 hrs by sulforhodamine B assay; conditions: Homo sapiens, HOP-92, 48 h; for CC50: read-out: LC50 (the source's name)
DU-145 = assay: Anticancer activity against human DU145 cells after 48 hrs by sulforhodamine B assay; conditions: Homo sapiens, DU-145, 48 h; for CC50: read-out: LC50 (the source's name)
[2] = Anticancer activity against human Hs 578T cells after 48 hrs by sulforhodamine B assay; conditions: Homo sapiens, Hs-578T, 48 h; for CC50: read-out: LC50 (the source's name)
SK-OV-3 = assay: Anticancer activity against human SKOV3 cells after 48 hrs by sulforhodamine B assay; conditions: Homo sapiens, SK-OV-3, 48 h; for CC50: read-out: LC50 (the source's name)
SW-620 = assay: Anticancer activity against human SW620 cells assessed cell growth at 10 uM after 48 hrs by sulforhodamine B assay relative to control
EKVX = assay: Anticancer activity against human EKVX cells after 48 hrs by sulforhodamine B assay; conditions: Homo sapiens, EKVX, 48 h; for CC50: read-out: LC50 (the source's name)
SK-MEL-5 [3] = assay: Anticancer activity against human SK-MEL-5 cells assessed cell growth at 10 uM after 48 hrs by sulforhodamine B assay relative to control
M14 = assay: Anticancer activity against human M14 cells after 48 hrs by sulforhodamine B assay; conditions: Homo sapiens, M14, 48 h
K562 = assay: Anticancer activity against human K562 cells after 48 hrs by sulforhodamine B assay; conditions: Homo sapiens, K562, 48 h; for CC50: read-out: LC50 (the source's name)
UACC-62 = assay: Anticancer activity against human UACC62 cells assessed cell growth at 10 uM after 48 hrs by sulforhodamine B assay relative to control
MDA-MB-435 = assay: Anticancer activity against human MDA-MB-435 cells after 48 hrs by sulforhodamine B assay; conditions: Homo sapiens, MDA-MB-435, 48 h; for CC50: read-out: LC50 (the source's name)
SK-MEL-28 = assay: Anticancer activity against human SK-MEL-28 cells after 48 hrs by sulforhodamine B assay; conditions: Homo sapiens, SK-MEL-28, 48 h
HCT-15 = assay: Anticancer activity against human HCT15 cells after 48 hrs by sulforhodamine B assay; conditions: Homo sapiens, HCT-15, 48 h; for CC50: read-out: LC50 (the source's name)
HOP-62 = assay: Anticancer activity against human HOP62 cells after 48 hrs by sulforhodamine B assay; conditions: Homo sapiens, HOP-62, 48 h; for CC50: read-out: LC50 (the source's name)
OVCAR-4 = assay: Anticancer activity against human OVCAR4 cells after 48 hrs by sulforhodamine B assay; conditions: Homo sapiens, OVCAR-4, 48 h; for CC50: read-out: LC50 (the source's name)
HL-60(TB) = assay: Anticancer activity against human HL-60(TB) cells after 48 hrs by sulforhodamine B assay; conditions: Homo sapiens, HL-60, 48 h; for CC50: read-out: LC50 (the source's name)
RXF 393 [4] = assay: Anticancer activity against human RXF393 cells after 48 hrs by sulforhodamine B assay; conditions: Homo sapiens, RXF 393, 48 h
UO-31 = assay: Anticancer activity against human UO31 cells after 48 hrs by sulforhodamine B assay; conditions: Homo sapiens, UO-31, 48 h
786-0 = assay: Anticancer activity against human 786-0 cells after 48 hrs by sulforhodamine B assay; conditions: Homo sapiens, 786-0, 48 h
UACC-257 = assay: Anticancer activity against human UACC257 cells after 48 hrs by sulforhodamine B assay; conditions: Homo sapiens, UACC-257, 48 h
MOLT-4 = assay: Anticancer activity against human MOLT4 cells assessed cell growth at 10 uM after 48 hrs by sulforhodamine B assay relative to control
ACHN = assay: Anticancer activity against human ACHN cells after 48 hrs by sulforhodamine B assay; conditions: Homo sapiens, ACHN, 48 h
[5] = Anticancer activity against human […] cells after 48 hrs by sulforhodamine B assay; conditions: Homo sapiens, RPMI8266, 48 h; for CC50: read-out: LC50 (the source's name)
BT-549 = assay: Anticancer activity against human BT549 cells after 48 hrs by sulforhodamine B assay; conditions: Homo sapiens, BT-549, 48 h; for CC50: read-out: LC50 (the source's name)
SN12C = assay: Anticancer activity against human SN12C cells assessed cell growth at 10 uM after 48 hrs by sulforhodamine B assay relative to control
MDA-MB-231 = assay: Anticancer activity against human MDA-MB-231 cells assessed cell growth at 10 uM after 48 hrs by sulforhodamine B assay relative to control
A498 = assay: Anticancer activity against human A498 cells after 48 hrs by sulforhodamine B assay; conditions: Homo sapiens, A498, 48 h; for CC50: read-out: LC50 (the source's name)
NCI-H322M [6] = assay: Anticancer activity against human NCI-H322M cells after 48 hrs by sulforhodamine B assay; conditions: Homo sapiens, NCI-H322M, 48 h
NCI-H322M [7] = assay: Anticancer activity against human NCI-H322M cells assessed cell growth at 10 uM after 48 hrs by sulforhodamine B assay relative to control
SNB-75 = assay: Anticancer activity against human SNB75 cells assessed cell growth at 10 uM after 48 hrs by sulforhodamine B assay relative to control
NCI/ADR-RES = assay: Anticancer activity against human NCI/ADR-RES cells after 48 hrs by sulforhodamine B assay; conditions: Homo sapiens, NCI/ADR-RES, 48 h
Malme-3M = assay: Anticancer activity against human MALME-3M cells assessed cell growth at 10 uM after 48 hrs by sulforhodamine B assay relative to control
SK-MEL-5 [8] = assay: Anticancer activity against human SK-MEL-5 cells after 48 hrs by sulforhodamine B assay; conditions: Homo sapiens, SK-MEL-5, 48 h; for CC50: read-out: LC50 (the source's name)
OVCAR-5 = assay: Anticancer activity against human OVCAR5 cells assessed cell growth at 10 uM after 48 hrs by sulforhodamine B assay relative to control
NCI-H522 = assay: Anticancer activity against human NCI-H522 cells after 48 hrs by sulforhodamine B assay; conditions: Homo sapiens, NCI-H522, 48 h
SF-539 = assay: Anticancer activity against human SF539 cells assessed cell growth at 10 uM after 48 hrs by sulforhodamine B assay relative to control
LOX IMVI = assay: Anticancer activity against human LOXIMVI cells after 48 hrs by sulforhodamine B assay; conditions: Homo sapiens, LOX IMVI, 48 h; for CC50: read-out: LC50 (the source's name)

CCCCCCCCCCCCCCCCCC[n+]1ccn(C)c1.O=S(=O)([N-]S(=O)(=O)C(F)(F)F)C(F)(F)F
Activity (RXF 393 [1]): -62.07% | GI50 (SNB-19): 1180 nM | CC50 (SNB-19): 4950 nM | Activity (MCF7): 6.12% | Activity (NCI-H23): -44.29% | GI50 (HOP-92): 350 nM | CC50 (HOP-92): > 100000 nM | GI50 (DU-145): 792 nM | CC50 (DU-145): 4690 nM | GI50 [2]: 546 nM | CC50 [2]: 8480 nM | GI50 (SK-OV-3): 1160 nM | CC50 (SK-OV-3): 5820 nM | Activity (SW-620): -38.1% | GI50 (EKVX): 673 nM | CC50 (EKVX): 5760 nM | Activity (SK-MEL-5 [3]): -74.13% | GI50 (M14): 537 nM | LC50 (50% lethal concentration) (M14): 6840 nM | GI50 (K562): 312 nM | CC50 (K562): > 100000 nM | Activity (UACC-62): -82.14% | GI50 (MDA-MB-435): 1080 nM | CC50 (MDA-MB-435): 6690 nM | GI50 (SK-MEL-28): 1140 nM | LC50 (SK-MEL-28): 6510 nM | GI50 (HCT-15): 1070 nM | CC50 (HCT-15): 5940 nM | GI50 (HOP-62): 1110 nM | CC50 (HOP-62): 9780 nM | GI50 (OVCAR-4): 351 nM | CC50 (OVCAR-4): > 100000 nM | GI50 (HL-60(TB)): 293 nM | CC50 (HL-60(TB)): > 100000 nM | GI50 (RXF 393 [4]): 1030 nM | LC50 (RXF 393 [4]): 6550 nM | GI50 (UO-31): 1480 nM | LC50 (UO-31): > 100000 nM | GI50 (786-0): 952 nM | LC50 (50% lethal concentration) (786-0): > 100000 nM | GI50 (UACC-257): 1530 nM | LC50 (UACC-257): > 100000 nM | Activity (MOLT-4): 9.25% | GI50 (ACHN): 920 nM | LC50 (ACHN): 4780 nM | GI50 [5]: 62 nM | CC50 [5]: > 100000 nM | GI50 (BT-549): 1060 nM | CC50 (BT-549): 5950 nM | Activity (SN12C): -68.39% | Activity (MDA-MB-231): -80.16% | GI50 (A498): 1070 nM | CC50 (A498): 6220 nM | GI50 (NCI-H322M [6]): 1520 nM | LC50 (NCI-H322M [6]): 6400 nM | Activity (NCI-H322M [7]): 6.16% | Activity (SNB-75): -55.13% | GI50 (NCI/ADR-RES): 1240 nM | LC50 (NCI/ADR-RES): 9410 nM | Activity (Malme-3M): -49.87% | GI50 (SK-MEL-5 [8]): 532 nM | CC50 (SK-MEL-5 [8]): 4210 nM | Activity (OVCAR-5): -59.68% | GI50 (NCI-H522): 1020 nM | LC50 (NCI-H522): > 100000 nM | Activity (SF-539): -82.94% | GI50 (LOX IMVI): 406 nM | CC50 (LOX IMVI): 5240 nM

CCCCCCCCCCCCCCCC[n+]1ccn(C)c1.[Cl-]
Activity (RXF 393 [1]): -66.19% | GI50 (SNB-19): 1220 nM | CC50 (SNB-19): 9590 nM | Activity (MCF7): -79.92% | Activity (NCI-H23): -51.9% | GI50 (HOP-92): 1020 nM | CC50 (HOP-92): 7300 nM | GI50 (DU-145): 719 nM | CC50 (DU-145): 4480 nM | GI50 [2]: 538 nM | CC50 [2]: 6110 nM | GI50 (SK-OV-3): 1270 nM | CC50 (SK-OV-3): > 100000 nM | Activity (SW-620): -66.67% | GI50 (EKVX): 358 nM | CC50 (EKVX): 6770 nM | Activity (SK-MEL-5 [3]): -95.2% | GI50 (M14): 343 nM | GI50 (K562): 190 nM | CC50 (K562): 3490 nM | Activity (UACC-62): -94.58% | GI50 (MDA-MB-435): 482 nM | CC50 (MDA-MB-435): 6980 nM | GI50 (SK-MEL-28): 948 nM | GI50 (HCT-15): 1000 nM | CC50 (HCT-15): 4650 nM | GI50 (HOP-62): 1170 nM | CC50 (HOP-62): 6890 nM | GI50 (OVCAR-4): 594 nM | CC50 (OVCAR-4): 7200 nM | GI50 (HL-60(TB)): 131 nM | CC50 (HL-60(TB)): 816 nM | GI50 (RXF 393 [4]): 379 nM | GI50 (UO-31): 1100 nM | GI50 (786-0): 1180 nM | GI50 (UACC-257): 1120 nM | Activity (MOLT-4): 17.19% | GI50 (ACHN): 832 nM | GI50 [5]: 240 nM | CC50 [5]: 764 nM | GI50 (BT-549): 1040 nM | CC50 (BT-549): 5920 nM | Activity (SN12C): -94.61% | Activity (MDA-MB-231): -93.87% | GI50 (A498): 1110 nM | CC50 (A498): 7390 nM | GI50 (NCI-H322M [6]): 1740 nM | Activity (NCI-H322M [7]): 8.28% | Activity (SNB-75): -98.62% | GI50 (NCI/ADR-RES): 2100 nM | Activity (Malme-3M): -77.38% | GI50 (SK-MEL-5 [8]): 461 nM | CC50 (SK-MEL-5 [8]): 4190 nM | Activity (OVCAR-5): -67.51% | GI50 (NCI-H522): 1010 nM | Activity (SF-539): -98.59% | GI50 (LOX IMVI): 334 nM | CC50 (LOX IMVI): 3780 nM
